# Test results from patent publication EP3771487A1, “METHOD FOR THE SIMULTANEOUS DETERMINATION OF VARIOUS ANALYTES IN AN ENVIRONMENTAL SAMPLE AND / OR AN AGRICULTURAL RAW MATERIAL BASED ON CORE-SHELL MICROPARTICLES” (Bundesrepublik Deutschland, vertreten durch den …, priority 2019, dated 2021).
# What was measured:
# anti-CBZ mAb [1] = conditions: anti-CBZ antibody; cited from earlier work
# anti-DCF mAb [2] = assay: SAFIA (indirect competitive particle-based suspension array fluorescence immunoassay), DCF channel; type: binding, Maus; conditions: for Molare Kreuzreaktivität DCF (SAFIA): method of Abraham, anti-DCF antibody
# Experimental: (§1) Indirekt kompetitiver partikelbasierter Immunoassay: Alle Immunoassays wurden in schwarzen, nicht-bindenden Mikrotiterplatten mit flachem Boden (Greiner Bio-One) durchgeführt. Zum Verdünnen der Suspension der Mikropartikel (Beads) und der biochemischen Reagenzien wurde TRIS-gepufferte Salzlösung (10 mM Tris (hydroxymethyl)aminomethan, 150mM NaCl, pH = 8,5) verwendet. Zunächst wurden 50 µL der Probe oder des Standards und 50 µl einer Mischung der primären (prim.) Antikörper anti-CAF (272 µg/L), anti-CBZ (350 µg/L), anti-DCF (20 µg/L), anti-OTA (50 ng/L), anti-ZON (250µg/L) und anti-ILA (Verdünnung des (polyklonalen) Antiserums: 1:10.000) während 5 Minuten auf einem Kreisschüttler (Titra-max 101, Heidolph) bei 750 U/min geschüttelt. Zur Kalibrierung wurde eine 8-Punkt Verdünnungsserie eines Mischstandards jedes Analyten umfassend Konzentrationen von 10.000 µg/L bis 1 ng/L verwendet, der durch serielle Verdünnung einer methanolischen Stammlösung von 1 mg/mL jedes einzelnen Analyten mit ultrareinem Wasser hergestellt worden war. Danach wurden 20 µL einer Mischung der fluoreszenzkodierten, Hapten-gekoppelten Mikropartikel (Mikropartikel) zugesetzt und für weitere 5 min geschüttelt. Um ein Messsignal der gebundenen Antikörper zu erhalten, wurden 100 µL Alexa Fluor™488 Ziege anti-mouse (und anti-Kaninchen) IgG(H+L), je 2 µg/mL Antikörper (dye 2 red-kodierte Partikel), oder Alexa Fluor™647 Ziege anti-Maus (und anti-Kaninchen) IgG(H+L), je 2 µg/ml Antikörper (dye 1 green kodierte Partikel) den Kern/Schale-Partikeln zugesetzt und für 15 min inkubiert.
# (§2) Abschließend wurden, um den Assay zu stoppen, 100 µL einer 6%-igen Formaldehyd-Lösung (aus 37% HCHO/10-15% MeOH Stammlösung, (w/w)), 2% MeOH und 0.01% SDS in PBS zugesetzt und für mindestens 10 min inkubiert. Die Mischung jedes Kavität wurde in einem BD Accuri C6 oder BD AccuriC6 plus Durchflusszytometer bei einer Flussrate von 66 µL/min während 30 s analysiert, wobei ein Schwellwert von 80.000 a.u. am FSC Detektor und ein Probeninjektionsport (SIP)- Reinigungszyklus zwischen den einzelnen Durchläufen eingeschoben wurde, um ein Verschleppen (Übertrag) zu verhindern. Standards und Proben wurden zufällig über die Mikrotiterplatte verteilt angeordnet, um einen Einfluss von Signaldrift und Randeffekte möglichst auszuschließen. Zum Testen der Bindungs-Selektivität wurde jeder Antikörper separat mit jedem haptenmodifizierten (d.h. Haptengekoppeltem) Set der verwendeten Kern/Schale-Mikropartikel inkubiert. Die hier als Fixierlösung verwendete Lösung umfasst bevorzugt Formaldehyd im Konzentrationsbereich 1-10 % vol/vol), Methanol (1-10 % vol/vol) und Natriumdodecylsulfat (0,001-10 % m/m). Statt Formaldehyd können auch andere Aldehyde mit quervernetzenden Eigenschaften (z.B. Glyoxal, Glutarladehyd, Malondialdehyd, Dipalaldehyd) eingesetzt werden. Statt Natriumdodecylsulfat können andere Detergenzien (z.B. Tween20, TitronX, Genapol, CTAB) verwendet werden.
# (§3) Datenbehandlung: Alle zytometrischen Daten wurden zunächst nach Streuwerten gegated (FSC/SSC (gate "size": vgl. Fig. 2E) um Partikelaggregate von der Berechnung auszuschließen. Danach wurden vier Gates am FSC/FL-4 (dye 2 red kodierte Partikel, Fig. 2F) oder FSC/FL-1 (dye 1 green kodierte Partikel) verwendet, um die Partikel zu dekodieren und die Analyt-bezogene mittlere Fuoreszenzintensität zu berechnen (vgl. Fig. 2G). Mittelwerte und Standardabweichungen von Wiederholungsmessungen wurden gegen die Konzentration der entsprechenden Analyte auf einer logarithmischen Skale abgetragen. Die von Rodbard eingeführte (Rodbard, D. Biometrics 1975, 31, 599-600) Vier-Parameter-Eichkurve wurde nach der Methode der kleinsten Fehlerquadrate mittels Origin® ver. 9 Grafik-Software gefittet. Ausreißer wurden mittels Grubbs Test bei einem SignifikanzNiveau α = 0,05 identifiziert und eliminiert. Welch's t-Test wurde mit einem Signifikanzniveau von α = 0,05 unter Zuhilfenahme von Origin® 9 verwendet. […]
# [3] = system: anti-CAF Antikörper (mAb); assay: SAFIA (indirect competitive particle-based suspension array fluorescence immunoassay), CAF channel; type: binding, Maus; conditions: for Molare Kreuzreaktivität CAF (SAFIA): method of Abraham, anti-CAF antibody
# Experimental: as §1, §2, §3
# anti-ILA Antiserum [4] = assay: SAFIA (indirect competitive particle-based suspension array fluorescence immunoassay), ILA channel; type: binding, Kaninchen; conditions: for Molare Kreuzreaktivität ILA (SAFIA): method of Abraham, anti-ILA antiserum
# Experimental: as §1, §2, §3
# anti-CBZ mAb [5] = assay: SAFIA (indirect competitive particle-based suspension array fluorescence immunoassay), CBZ channel; type: binding, Maus; conditions: for Molare Kreuzreaktivität CBZ (SAFIA): method of Abraham, anti-CBZ antibody
# Experimental: as §1, §2, §3
# anti-DCF mAb [6] = conditions: anti-DCF antibody; cited from earlier work
# [7] = system: anti-CAF Antikörper (mAb); conditions: anti-CAF antibody; cited from earlier work
# anti-ILA Antiserum [8] = conditions: cited from earlier work
# [9] = calibration curve, dye 2 red coded particles, Alexa Fluor™488 secondary antibody
"IC50 ""Dye 2 Red"" (anti-DCF mAb [2]; [9])",SMILES,Molare Kreuzreaktivität CBZ (ELISA) (anti-CBZ mAb [1]),Molare Kreuzreaktivität DCF (SAFIA) (anti-DCF mAb [2]),Molare Kreuzreaktivität CAF (SAFIA) [3],Molare Kreuzreaktivität ILA (SAFIA) (anti-ILA Antiserum [4]),Molare Kreuzreaktivität CBZ (SAFIA) (anti-CBZ mAb [5]),Molare Kreuzreaktivität DCF (ELISA) (anti-DCF mAb [6]),"Molare Kreuzreaktivität CBZ (SAFIA) (anti-CBZ mAb [5]; listed as Carbamazepin-10,1-L-epoxid)","IC50 ""Dye 2 Red"" [3, 9]",Molare Kreuzreaktivität CAF (ELISA) [7],"IC50 ""Dye 2 Red"" (anti-CBZ mAb [5]; [9])",Molare Kreuzreaktivität ILA (ELISA) (anti-ILA Antiserum [8]),"IC50 ""Dye 2 Red"" (anti-ILA Antiserum [4]; [9])"
,NC(=O)N1c2ccccc2C=Cc2ccc(O)cc21 [3-Hydroxycarbamazepin],"5,1%","<0,1%","<0,1%","< 0,1%","20,2%",,,,,,,
,O=C(O)Cc1ccccc1Nc1c(Cl)cc(O)cc1Cl [4'-Hydroxydiclofenac],,"<0,1%","<0,1%","<0,1%","<0,1%",11%,,,,,,
,O=C(O)Cc1cc(O)ccc1Nc1c(Cl)cccc1Cl [5'-Hydroxydiclofenac],,"9,8%","<0,1%","<0,1%","<0,1%",13%,,,,,,
,"NC(=O)N1c2ccccc2C(O)C(O)c2ccccc21 (centres unmarked) [10,11-Dihydroxy-carbamazepin]","0,1%","< 0,1%","<0,1%",,"0,3%",,,,,,,
,"NC(=O)N1c2ccccc2C2OC2c2ccccc21 (centres unmarked) [10,11-Epoxycarbamazepin]",140%,"<0,1%","<0,1%","< 0,1%",117%,,118%,,,,,
,O=C(O)COC(=O)Cc1ccccc1Nc1c(Cl)cccc1Cl [Aceclofenac],,"16,6%","<0,1%","<0,1%","<0,1%",,,,,,,
,"Cn1c(=O)c2c(ncn2C)n(C)c1=O [CAF, Coffein]",,"<0,1%",100%,"< 0,1%","<0,1%",,,"1,72 ± 0,16 µg/L",100%,,,
,"NC(=O)N1c2ccccc2C=Cc2ccccc21 [CBZ, Carbamazepin]",100%,"<0,1%","<0,1%","< 0,1%",100%,,,,,"1,13 ± 0,07 µg/L",,
,C[C@H](CCC(=O)O)[C@H]1CC[C@H]2[C@@H]3[C@H](O)C[C@@H]4C[C@H](O)CC[C@]4(C)[C@H]3C[C@H](O)[C@]12C [Cholsäure],,"<0,1%","<0,1%","<0,1%","<0,1%",,,,,,"<0,1%",
"0,05 ± 0,02 µg/L","O=C(O)Cc1ccccc1Nc1c(Cl)cccc1Cl [DCF, Diclofenac]",,100%,"<0,1%","< 0,1%","<0,1%",100%,,,,,,
,"C[C@H](CCC(=O)O)[C@H]1CC[C@H]2[C@@H]3CC[C@@H]4C[C@@H](O)CC[C@]4(C)[C@H]3CC[C@]12C [ILA, Isolithocholsäure]",,"<0,1%","<0,1%",100%,"<0,1%",,,,,,100%,"1,39 ± 0,72 µg/L"
,C[C@H](CCC(=O)O)[C@H]1CC[C@H]2[C@@H]3CC[C@@H]4C[C@H](O)CC[C@]4(C)[C@H]3CC[C@]12C [Lithocholsäure],,"<0,1%","<0,1%","1,9%","<0,1%",,,,,,"0,3%",
,Cn1c(=O)[nH]c2ncn(C)c2c1=O [Paraxanthin],,"<0,1%","<0,1%","<0,1%","<0,1%",,,,"<0,1%",,,
,C[C@H](CCC(=O)NCCS(=O)(=O)O)[C@H]1CC[C@H]2[C@@H]3CC[C@@H]4C[C@H](O)CC[C@]4(C)[C@H]3CC[C@]12C [Taurolithocholsäure],,"<0,1%","<0,1%","<0,1%","<0,1%",,,,,,"1,2%",
,Cn1cnc2c1c(=O)[nH]c(=O)n2C [Theobromin],,"<0,1%","2,0%","<0,1%","<0,1%",,,,"0,13%",,,
,Cn1c(=O)c2[nH]cnc2n(C)c1=O [Theophyllin],,"<0,1%","5,8%","<0,1%","<0,1%",,,,"12,0%",,,
